Key:
[1] = AUC (0 to infinity) in wild-type bile duct-cannulated Sprague-Dawley rat at 2 mg/kg, iv administered 0.125 hr post GF-120918 treatment; type: ADME, organism-based; design: time infinity, dose 2 mg/kg, route intravenous; conditions: in vivo, with GF-120918
Rattus norvegicus [2] = assay: Renal clearance in P-gp-knockout Sprague-Dawley rat at 2 mg/kg, iv relative to total clearance; type: ADME, organism-based, Kidney; design: dose 2 mg/kg, route intravenous; conditions: in vivo
[3] = Drug recovery in urine of Sprague-Dawley rat at 30 mg/kg, po measured up to 168 hrs; type: ADME, organism-based; design: dose 30 mg/kg, route oral; conditions: read-out: Drug recovery
[4] = Drug recovery in feces of bile duct-cannulated beagle dog at 1 mg/kg, iv administered as 5 mins infusion measured up to 72 hrs; type: ADME, organism-based, Canis lupus familiaris; design: dose 1 mg/kg, route intravenous; conditions: read-out: Drug recovery
[5] = Volume of distribution at steady state in wild-type bile duct-cannulated Sprague-Dawley rat at 2 mg/kg, iv; type: ADME, organism-based; design: dose 2 mg/kg, route intravenous; conditions: in vivo, read-out: Vdss
[6] = Drug recovery in urine of bile duct-cannulated P-gp-knockout Sprague-Dawley rat at 2 mg/kg, iv measured up to 24 hrs; type: ADME, organism-based; design: dose 2 mg/kg, route intravenous; conditions: read-out: Drug recovery
[7] = Drug recovery in feces of bile duct-cannulated BCRP-knockout Sprague-Dawley rat at 2 mg/kg, iv measured up to 24 hrs; type: ADME, organism-based; design: dose 2 mg/kg, route intravenous; conditions: read-out: Drug recovery
[8] = Half life in wild-type 30 mins activated charcoal pre-treated bile duct-cannulated Sprague-Dawley rat at 2 mg/kg, iv followed by activated charcoal administration 5 to 180 mins post compound dosing; type: ADME, organism-based; design: dose 2 mg/kg, route intravenous; conditions: in vivo
[9] = Half life in bile duct-cannulated beagle dog at 1 mg/kg, iv administered as 5 mins infusion; type: ADME, organism-based, Canis lupus familiaris; design: dose 1 mg/kg, route intravenous; conditions: in vivo
[10] = Cmax in wild-type bile duct-cannulated Sprague-Dawley rat at 2 mg/kg, iv; type: ADME, organism-based; design: dose 2 mg/kg, route intravenous; conditions: in vivo
[11] = Volume of distribution at steady state in bile duct-cannulated beagle dog at 1 mg/kg, iv administered as 5 mins infusion; type: ADME, organism-based, Canis lupus familiaris; design: dose 1 mg/kg, route intravenous; conditions: in vivo, read-out: Vdss
Rattus norvegicus [12] = assay: Intestinal clearance in wild-type bile duct-cannulated Sprague-Dawley rat at 2 mg/kg, iv administered 0.125 hr post GF-120918 treatment relative to total clearance; type: ADME, organism-based; design: dose 2 mg/kg, route intravenous; conditions: in vivo
Rattus norvegicus [13] = assay: Metabolism and biliary clearance at 8 hrs in wild-type bile duct-cannulated Sprague-Dawley rat at 2 mg/kg, iv administered 0.125 hr post GF-120918 treatment; type: ADME, organism-based; design: dose 2 mg/kg, route intravenous; conditions: in vivo
[14] = Drug recovery in feces of bile duct-cannulated Sprague-Dawley rat at 30 mg/kg, po measured up to 48 hrs; type: ADME, organism-based; design: dose 30 mg/kg, route oral; conditions: read-out: Drug recovery
Rattus norvegicus [15] = assay: Intestinal clearance in BCRP-knockout Sprague-Dawley rat at 2 mg/kg, iv; type: ADME, organism-based; design: dose 2 mg/kg, route intravenous; conditions: in vivo
[16] = Half life in wild-type bile duct-cannulated Sprague-Dawley rat at 2 mg/kg, iv administered 0.125 hr post GF-120918 treatment; type: ADME, organism-based; design: dose 2 mg/kg, route intravenous; conditions: in vivo, with GF-120918
[17] = Drug recovery in feces of bile duct-cannulated Sprague-Dawley rat at 2 mg/kg, iv administered 1 hr post GF-120918 treatment measured up to 48 hrs; type: ADME, organism-based; design: dose 2 mg/kg, route intravenous; conditions: with GF-120918, given 1 hr before the compound, read-out: Drug recovery
[18] = Cmax in wild-type 30 mins activated charcoal pre-treated bile duct-cannulated Sprague-Dawley rat at 2 mg/kg, iv followed by activated charcoal administration 5 to 180 mins post compound dosing; type: ADME, organism-based; design: dose 2 mg/kg, route intravenous; conditions: in vivo
[19] = Drug recovery in bile of bile duct-cannulated Sprague-Dawley rat at 2 mg/kg, iv measured up to 24 hrs; type: ADME, organism-based; design: dose 2 mg/kg, route intravenous; conditions: read-out: Drug recovery
[20] = Drug recovery in bile of 30 mins activated charcoal pre-treated bile duct-cannulated Sprague-Dawley rat at 2 mg/kg, iv followed by activated charcoal administration 5 to 180 mins post compound dosing measured up to 48 hrs; type: ADME, organism-based; design: dose 2 mg/kg, route intravenous; conditions: read-out: Drug recovery
[21] = Mean residence time in wild-type bile duct-cannulated Sprague-Dawley rat at 2 mg/kg, iv administered 0.125 hr post GF-120918 treatment; type: ADME, organism-based; design: dose 2 mg/kg, route intravenous; conditions: in vivo, with GF-120918
Canis familiaris [22] = assay: Clearance in bile duct-cannulated beagle dog at 1 mg/kg, iv administered as 5 mins infusion; type: ADME, organism-based, Canis lupus familiaris; design: dose 1 mg/kg, route intravenous; conditions: in vivo
[23] = Clearance in P-gp-knockout Sprague-Dawley rat at 2 mg/kg, iv; type: ADME, organism-based; design: dose 2 mg/kg, route intravenous; conditions: in vivo
Rattus norvegicus [24] = assay: Metabolism and biliary clearance in wild-type 30 mins activated charcoal pre-treated bile duct-cannulated Sprague-Dawley rat at 2 mg/kg, iv followed by activated charcoal administration 5 to 180 mins post compound dosing relative to total clearance; type: ADME, organism-based; design: dose 2 mg/kg, route intravenous; conditions: in vivo
[25] = Renal clearance in BCRP-knockout Sprague-Dawley rat at 2 mg/kg, iv; type: ADME, organism-based, Kidney; design: dose 2 mg/kg, route intravenous; conditions: in vivo
Rattus norvegicus [26] = assay: Metabolism and biliary clearance in P-gp-knockout Sprague-Dawley rat at 2 mg/kg, iv relative to total clearance; type: ADME, organism-based, Bile; design: dose 2 mg/kg, route intravenous; conditions: in vivo
Rattus norvegicus [27] = assay: Intestinal clearance in wild-type 30 mins activated charcoal pre-treated bile duct-cannulated Sprague-Dawley rat at 2 mg/kg, iv followed by activated charcoal administration 5 to 180 mins post compound dosing relative to total clearance; type: ADME, organism-based; design: dose 2 mg/kg, route intravenous; conditions: in vivo
[28] = Drug recovery in urine of bile duct-cannulated Sprague-Dawley rat at 30 mg/kg, po measured up to 48 hrs; type: ADME, organism-based; design: dose 30 mg/kg, route oral; conditions: read-out: Drug recovery
[29] = Renal clearance in bile duct-cannulated beagle dog at 1 mg/kg, iv administered as 5 mins infusion followed by activated charcoal administration 10 to 420 mins post compound dosing; type: ADME, organism-based, Canis lupus familiaris, Kidney; design: dose 1 mg/kg, route intravenous; conditions: in vivo
Rattus norvegicus [30] = assay: Metabolism and biliary clearance in wild-type 30 mins activated charcoal pre-treated bile duct-cannulated Sprague-Dawley rat at 2 mg/kg, iv followed by activated charcoal administration 5 to 180 mins post compound dosing; type: ADME, organism-based; design: dose 2 mg/kg, route intravenous; conditions: in vivo
[31] = Cmax in BCRP-knockout Sprague-Dawley rat at 2 mg/kg, iv; type: ADME, organism-based; design: dose 2 mg/kg, route intravenous; conditions: in vivo
Rattus norvegicus [32] = assay: Metabolism and biliary clearance in wild-type bile duct-cannulated Sprague-Dawley rat at 2 mg/kg, iv relative to total clearance; type: ADME, organism-based; design: dose 2 mg/kg, route intravenous; conditions: in vivo
[33] = Drug recovery in bile of bile duct-cannulated Sprague-Dawley rat at 30 mg/kg, po measured up to 48 hrs; type: ADME, organism-based; design: dose 30 mg/kg, route oral; conditions: read-out: Drug recovery
[34] = Plasma protein binding in beagle dog; type: ADME, cell-free, Canis lupus familiaris; conditions: read-out: PPB (converted)
[35] = Mean residence time in wild-type bile duct-cannulated Sprague-Dawley rat at 2 mg/kg, iv; type: ADME, organism-based; design: dose 2 mg/kg, route intravenous; conditions: in vivo
[36] = Mean residence time in BCRP-knockout Sprague-Dawley rat at 2 mg/kg, iv; type: ADME, organism-based; design: dose 2 mg/kg, route intravenous; conditions: in vivo
[37] = Drug recovery in feces of bile duct-cannulated Sprague-Dawley rat at 2 mg/kg, iv measured up to 24 hrs; type: ADME, organism-based; design: dose 2 mg/kg, route intravenous; conditions: read-out: Drug recovery
[38] = Drug recovery in feces of 30 mins activated charcoal pre-treated bile duct-cannulated Sprague-Dawley rat at 2 mg/kg, iv followed by activated charcoal administration 5 to 180 mins post compound dosing measured up to 48 hrs; type: ADME, organism-based; design: dose 2 mg/kg, route intravenous; conditions: read-out: Drug recovery
[39] = Volume of distribution at steady state in BCRP-knockout Sprague-Dawley rat at 2 mg/kg, iv; type: ADME, organism-based; design: dose 2 mg/kg, route intravenous; conditions: in vivo, read-out: Vdss
[40] = Drug recovery in bile of bile duct-cannulated P-gp-knockout Sprague-Dawley rat at 2 mg/kg, iv measured up to 24 hrs; type: ADME, organism-based; design: dose 2 mg/kg, route intravenous; conditions: read-out: Drug recovery
Canis familiaris [41] = assay: Metabolism and biliary clearance in bile duct-cannulated beagle dog at 1 mg/kg, iv administered as 5 mins infusion followed by activated charcoal administration 10 to 420 mins post compound dosing; type: ADME, organism-based, Canis lupus familiaris; design: dose 1 mg/kg, route intravenous; conditions: in vivo
[42] = Mean residence time in P-gp-knockout Sprague-Dawley rat at 2 mg/kg, iv; type: ADME, organism-based; design: dose 2 mg/kg, route intravenous; conditions: in vivo
[43] = Drug recovery in urine of beagle dog at 1 mg/kg, iv administered as 5 mins infusion measured up to 72 hrs; type: ADME, organism-based, Canis lupus familiaris; design: dose 1 mg/kg, route intravenous; conditions: read-out: Drug recovery
Canis familiaris [44] = assay: Intestinal clearance in bile duct-cannulated beagle dog at 1 mg/kg, iv administered as 5 mins infusion followed by activated charcoal administration 10 to 420 mins post compound dosing; type: ADME, organism-based, Canis lupus familiaris; design: dose 1 mg/kg, route intravenous; conditions: in vivo

SMILES: COc1ccc(-n2nc(C(N)=O)c3c2[14C](=O)N(c2ccc(N4CCCCC4=O)cc2)CC3)cc1
- AUC(0-inf) [1]: 2.84 µg·h/mL
- CL (Rattus norvegicus [2]): 43%
- dose excreted at 168 h [3]: 13.4%
- dose excreted [4]: 42.7%
- Vd [5]: 0.9 L/kg
- dose excreted at 24 h [6]: 44.3%
- dose excreted at 24 h [7]: 34.1%
- half-life [8]: 0.8 h
- half-life [9]: 2.9 h
- Cmax [10]: 2.26 µg/mL
- Vd [11]: 0.2 L/kg
- CL (Rattus norvegicus [12]): 14%
- CL (Rattus norvegicus [13]): 0.25 L/h/kg
- dose excreted at 48 h [14]: 69.8%
- CL (Rattus norvegicus [15]): 0.34 L/h/kg
- half-life [16]: 2.8 h
- dose excreted [17]: 13.8%
- Cmax [18]: 1.64 µg/mL
- dose excreted at 24 h [19]: 10.7%
- dose excreted [20]: 15.7%
- MRT [21]: 1.7 h
- CL (Canis familiaris [22]): 0.04 L/h/kg
- clearance [23]: 0.8 L/h/kg
- CL (Rattus norvegicus [24]): 33%
- CL renal [25]: 0.3 L/h/kg
- CL (Rattus norvegicus [26]): 33%
- CL (Rattus norvegicus [27]): 28%
- dose excreted at 48 h [28]: 10.5%
- CL renal [29]: 0.00731 L/h/kg
- CL (Rattus norvegicus [30]): 0.67 L/h/kg
- Cmax [31]: 2.37 µg/mL
- CL (Rattus norvegicus [32]): 28%
- dose excreted at 48 h [33]: 2.6%
- fraction unbound [34]: 0.08
- MRT [35]: 0.6 h
- MRT [36]: 1.4 h
- dose excreted at 24 h [37]: 21.1%
- dose excreted [38]: 28.8%
- Vd [39]: 1.8 L/kg
- dose excreted at 24 h [40]: 14.1%
- CL (Canis familiaris [41]): 0.0115 L/h/kg
- MRT [42]: 0.8 h
- dose excreted [43]: 9.9%
- CL (Canis familiaris [44]): 0.0312 L/h/kg

From ChEMBL document CHEMBL3526058, “Investigating the enteroenteric recirculation of apixaban, a factor Xa inhibitor: administration of activated charcoal to bile duct-cannulated rats and dogs receiving an intravenous dose and use of drug transporter knockout rats” (Drug Metab Dispos, 2013)
